Assay results taken from DBAASP.
≈ marks a conversion by molar mass, not a printed value.

Legend:
Assay in all cases: ≥ marks a high value that may be exact or a test limit, other limits are often not marked, values filed in µg/mL are converted to µM
Pseudomonas aeruginosa = system: Pseudomonas aeruginosa
Staphylococcus aureus = system: Staphylococcus aureus
Bacillus subtilis 168 = system: Bacillus subtilis 168
[1] = system: Candida albicans F7-39/IDE99
Escherichia coli B = system: Escherichia coli B
[2] = system: Candida albicans NCPF 1467
[3] = system: Staphylococcus aureus NCTC 10788
[4] = system: Pseudomonas aeruginosa ATCC 27853
[5] = system: Staphylococcus aureus ATCC 43300
[6] = system: Staphylococcus aureus ATCC 2592
Bacillus subtilis = system: Bacillus subtilis
[7] = system: Candida albicans ATCC 2002
[8] = system: Pseudomonas aeruginosa PAO1
Escherichia coli ML-35p = system: Escherichia coli ML-35p
[9] = system: Escherichia coli NCTC 10418
[10] = system: Staphylococcus epidermidis
Leuconostoc lactis = system: Leuconostoc lactis
Bacillus cereus = system: Bacillus cereus
Streptococcus uberis = system: Streptococcus uberis
Micrococcus luteus = system: Micrococcus luteus
Listeria innocua = system: Listeria innocua
Pasteurella multocida = system: Pasteurella multocida
Escherichia coli = system: Escherichia coli

## CSCC[C@H](NC(=O)CNC(=O)[C@H](Cc1ccccc1)NC(=O)[C@H](C)N)C(=O)N[C@@H](C)C(=O)N[C@@H](CC(C)C)C(=O)N[C@@H](CCCCN)C(=O)N[C@@H](CC(C)C)C(=O)N[C@@H](CC(C)C)C(=O)N[C@@H](CCCCN)C(=O)N[C@@H](CCCCN)C(=O)N[C@H](C(=O)N[C@@H](CC(C)C)C(N)=O)C(C)C [AFGMALKLLKKVL]
Pseudomonas aeruginosa
  MIC: 38.3 µM (≈ 54.8 µg/mL)
Staphylococcus aureus
  MIC: 4.7 µM (≈ 6.73 µg/mL)
Bacillus subtilis 168
  MIC: 1.3 µM (≈ 1.86 µg/mL)
[1]
  MIC: 10 µM (≈ 14.3 µg/mL)
Escherichia coli B
  MIC: 4.7 µM (≈ 6.73 µg/mL)

## CC[C@H](C)[C@H](NC(=O)[C@H](C)NC(=O)CNC(=O)[C@H](Cc1ccccc1)NC(=O)[C@@H](N)Cc1ccccc1)C(=O)N[C@@H](C)C(=O)N[C@@H](C)C(=O)N[C@@H](C)C(=O)N[C@@H](CC(C)C)C(=O)N1CCC[C@H]1C(=O)N[C@@H](Cc1cnc[nH]1)C(=O)N[C@H](C(=O)N[C@H](C(=O)N[C@@H](CO)C(=O)N[C@@H](C)C(=O)N[C@H](C(=O)N[C@@H](CCCCN)C(=O)N[C@@H](CC(N)=O)C(=O)N[C@@H](C)C(=O)N[C@@H](CC(C)C)C(=O)O)[C@@H](C)CC)[C@@H](C)CC)C(C)C [FFGAIAAALPHVISAIKNAL]
[2]
  MIC: ≥ 120 µM
[3]
  MIC: 16 µM (≈ 32.4 µg/mL)

## CC[C@H](C)[C@H](NC(=O)[C@H](C)NC(=O)[C@@H](NC(=O)[C@@H]1CCCN1C(=O)[C@H](CC(C)C)NC(=O)[C@@H](NC(=O)[C@H](CO)NC(=O)[C@@H](NC(=O)[C@H](C)NC(=O)[C@H](CCSC)NC(=O)[C@H](CCCCN)NC(=O)[C@H](CC(C)C)NC(=O)[C@@H](NC(=O)[C@@H]1CCCN1C(=O)CNC(=O)[C@@H](NC(=O)[C@@H](N)Cc1ccccc1)[C@@H](C)CC)C(C)C)[C@@H](C)O)[C@@H](C)CC)[C@@H](C)O)C(=O)N[C@H]1CSSC[C@@H](C(=O)O)NC(=O)[C@H](CCCCN)NC(=O)[C@H](CCCCN)NC(=O)[C@H](Cc2ccccc2)NC(=O)CNC(=O)[C@H](CCCCN)NC1=O [FIGPVLKMATSILPTAICKGFKKC]
[4]
  MIC: 1.95 µM (≈ 5 µg/mL)
[5]
  MIC: 3.9 µM (≈ 9.99 µg/mL)
[6]
  MIC: 1.95 µM (≈ 5 µg/mL)
Bacillus subtilis
  MIC: 7.79 µM (≈ 20 µg/mL)
[7]
  MIC: 3.9 µM (≈ 9.99 µg/mL)
[8]
  MIC: 3.9 µM (≈ 9.99 µg/mL)
Escherichia coli ML-35p
  MIC: 19.5 µM (≈ 50 µg/mL)

## CC[C@H](C)[C@H](NC(=O)[C@H](CC(C)C)NC(=O)[C@H](CO)NC(=O)[C@@H](NC(=O)[C@H](CC(C)C)NC(=O)[C@H](C)NC(=O)[C@@H]1CCCN1C(=O)[C@@H](NC(=O)[C@H](CC(C)C)NC(=O)[C@H](Cc1ccccc1)NC(=O)[C@@H]1CCCN1C(=O)[C@H](CC(C)C)NC(=O)[C@@H](N)Cc1ccccc1)[C@@H](C)CC)[C@@H](C)O)C(=O)N[C@@H](CO)C(=O)N[C@@H](CO)C(=O)N[C@@H](CC(C)C)C(N)=O [FLPFLIPALTSLISSL]
[2]
  MIC: ≥ 150 µM
[3]
  MIC: ≥ 50 µM

## CC[C@H](C)[C@H](NC(=O)[C@H](CO)NC(=O)CNC(=O)CNC(=O)[C@@H](NC(=O)[C@H](CC(C)C)NC(=O)[C@H](CO)NC(=O)[C@@H]1CCCN1C(=O)[C@@H](NC(=O)[C@H](CC(C)C)NC(=O)[C@H](CO)NC(=O)[C@H](CC(C)C)NC(=O)[C@@H](N)Cc1ccccc1)[C@@H](C)CC)C(C)C)C(=O)N[C@@H](CO)C(=O)N[C@@H](C)C(=O)N[C@@H](Cc1ccccc1)C(=O)N[C@@H](CCCCN)C(=O)O [FLSLIPSLVGGSISAFK]
[2]
  MIC: ≥ 160 µM
[3]
  MIC: ≥ 120 µM
[9]
  MIC: ≥ 160 µM

## CC[C@H](C)[C@H](NC(=O)[C@@H](NC(=O)[C@H](C)NC(=O)[C@H](Cc1ccccc1)NC(=O)[C@H](CC(C)C)NC(=O)CN)C(C)C)C(=O)N[C@@H](CCCCN)C(=O)N[C@@H](CCCCN)C(=O)N[C@H](C(=O)N[C@@H](C)C(=O)N[C@@H](CO)C(=O)N[C@H](C(=O)N[C@H](C(=O)N[C@@H](CCCCN)C(=O)NCC(=O)N[C@@H](CC(C)C)C(N)=O)[C@@H](C)CC)C(C)C)C(C)C [GLFAVIKKVASVIKGL]
[10]
  MIC: 3.65 µM (≈ 6 µg/mL)
Staphylococcus aureus
  MIC: 7.3 µM (≈ 12 µg/mL)
Leuconostoc lactis
  MIC: 1.83 µM (≈ 3 µg/mL)
Bacillus cereus
  MIC: 15.2 µM (≈ 25 µg/mL)
Streptococcus uberis
  MIC: 15.2 µM (≈ 25 µg/mL)
Micrococcus luteus
  MIC: 3.65 µM (≈ 6 µg/mL)
Listeria innocua
  MIC: 7.3 µM (≈ 12 µg/mL)
Pasteurella multocida
  MIC: ≥ 60.9 µM
Escherichia coli
  MIC: 30.4 µM (≈ 50 µg/mL)

## CC[C@H](C)[C@H](NC(=O)[C@H](CC(=O)O)NC(=O)[C@H](Cc1ccccc1)NC(=O)[C@H](CC(C)C)NC(=O)CN)C(=O)N[C@H](C(=O)N[C@@H](CCCCN)C(=O)N[C@@H](CCCCN)C(=O)N[C@H](C(=O)N[C@@H](C)C(=O)N[C@@H](CO)C(=O)N[C@H](C(=O)N[C@H](C(=O)NCC(=O)NCC(=O)N[C@@H](CC(C)C)C(N)=O)C(C)C)C(C)C)C(C)C)[C@@H](C)CC [GLFDIIKKVASVVGGL]
[10]
  MIC: 15.5 µM (≈ 25 µg/mL)
Staphylococcus aureus
  MIC: 15.5 µM (≈ 25 µg/mL)
Leuconostoc lactis
  MIC: 1.86 µM (≈ 3 µg/mL)
Bacillus cereus
  MIC: 15.5 µM (≈ 25 µg/mL)
Streptococcus uberis
  MIC: 7.43 µM (≈ 12 µg/mL)
Micrococcus luteus
  MIC: 7.43 µM (≈ 12 µg/mL)
Listeria innocua
  MIC: ≥ 61.9 µM
Pasteurella multocida
  MIC: ≥ 61.9 µM
Escherichia coli
  MIC: > 61.9 µM

## CC[C@H](C)[C@H](NC(=O)[C@H](CO)NC(=O)CNC(=O)[C@H](C)NC(=O)[C@@H](NC(=O)[C@H](Cc1cnc[nH]1)NC(=O)CNC(=O)[C@H](C)NC(=O)[C@@H](NC(=O)[C@H](CCCCN)NC(=O)[C@H](CCCCN)NC(=O)[C@@H](NC(=O)[C@@H](NC(=O)[C@H](CC(=O)O)NC(=O)[C@H](Cc1ccccc1)NC(=O)[C@H](CC(C)C)NC(=O)CN)[C@@H](C)CC)C(C)C)[C@@H](C)CC)[C@@H](C)CC)C(N)=O [GLFDIVKKIAGHIAGSI]
[10]
  MIC: ≥ 57.5 µM
Staphylococcus aureus
  MIC: 28.8 µM (≈ 50 µg/mL)
Leuconostoc lactis
  MIC: 6.9 µM (≈ 12 µg/mL)
Bacillus cereus
  MIC: ≥ 57.5 µM
Streptococcus uberis
  MIC: ≥ 57.5 µM
Micrococcus luteus
  MIC: ≥ 57.5 µM
Listeria innocua
  MIC: ≥ 57.5 µM
Pasteurella multocida
  MIC: ≥ 57.5 µM
Escherichia coli
  MIC: > 57.5 µM

## CC[C@H](C)[C@H](NC(=O)[C@@H](NC(=O)[C@H](CC(=O)O)NC(=O)[C@H](Cc1ccccc1)NC(=O)[C@H](CC(C)C)NC(=O)CN)C(C)C)C(=O)N[C@@H](C)C(=O)N[C@@H](CCCCN)C(=O)N[C@H](C(=O)N[C@@H](C)C(=O)N[C@@H](CO)C(=O)N[C@H](C(=O)N[C@H](C(=O)N[C@@H](CCCCN)C(=O)N[C@@H](CCCCN)C(=O)N[C@@H](CC(C)C)C(N)=O)[C@@H](C)CC)C(C)C)C(C)C [GLFDVIAKVASVIKKL]
[10]
  MIC: 3.53 µM (≈ 6 µg/mL)
Staphylococcus aureus
  MIC: 3.53 µM (≈ 6 µg/mL)
Leuconostoc lactis
  MIC: 3.53 µM (≈ 6 µg/mL)
Bacillus cereus
  MIC: 7.05 µM (≈ 12 µg/mL)
Streptococcus uberis
  MIC: 7.05 µM (≈ 12 µg/mL)
Micrococcus luteus
  MIC: 7.05 µM (≈ 12 µg/mL)
Listeria innocua
  MIC: 14.7 µM (≈ 25 µg/mL)
Pasteurella multocida
  MIC: ≥ 58.8 µM
Escherichia coli
  MIC: 29.4 µM (≈ 50 µg/mL)

## CC[C@H](C)[C@H](NC(=O)[C@H](C)NC(=O)[C@H](C)NC(=O)[C@H](CC(C)C)NC(=O)[C@@H](NC(=O)[C@H](CCCCN)NC(=O)[C@H](CCCNC(=N)N)NC(=O)[C@@H]1CCCN1C(=O)[C@H](CC(C)C)NC(=O)CN)[C@@H](C)CC)C(=O)N[C@@H](C)C(=O)N[C@@H](CCCCN)C(=O)N[C@@H](CCCCN)C(=O)N[C@@H](CCCCN)C(=O)NCC(=O)N[C@@H](CCCCN)C(=O)N[C@H]1CSSC[C@@H](C(=O)O)NC(=O)[C@H](CCCCN)NC(=O)[C@H](C)NC(=O)[C@H](C(C)C)NC(=O)[C@H](CC(C)C)NC(=O)[C@H](CCCCN)NC(=O)[C@H](CC(C)C)NC(=O)[C@@H]2CCCN2C(=O)CNC(=O)[C@H](CCCCN)NC1=O [GLPRKILAAIAKKKGKCKGPLKLVAKC]
Pseudomonas aeruginosa
  MIC: > 100 µM
Staphylococcus aureus
  MIC: > 100 µM
[1]
  MIC: ≥ 50 µM
Bacillus subtilis
  MIC: 4.2 µM (≈ 11.9 µg/mL)
Escherichia coli B
  MIC: ≥ 100 µM

## CC[C@H](C)[C@H](NC(=O)CNC(=O)[C@@H]1CCCN1C(=O)[C@H](CC(C)C)NC(=O)[C@H](C)NC(=O)[C@H](CC(N)=O)NC(=O)[C@H](CCCCN)NC(=O)[C@H](Cc1ccccc1)NC(=O)[C@H](C)NC(=O)[C@H](CO)NC(=O)[C@H](CC(C)C)NC(=O)[C@@H](NC(=O)CN)C(C)C)C(=O)N[C@@H](CCSC)C(=O)N[C@@H](CCCCN)C(=O)N[C@H](C(=O)N[C@H](C(=O)N[C@H](C(N)=O)C(C)C)[C@@H](C)CC)[C@@H](C)CC [GVLSAFKNALPGIMKIIV]
[2]
  MIC: 8.55 µM (≈ 16 µg/mL)
[3]
  MIC: 4.28 µM (≈ 8 µg/mL)
[9]
  MIC: ≥ 34.2 µM
